Experimental data from ChEMBL document CHEMBL1132862, “Structure-activity and crystallographic analysis of a new class of non-amide-based thrombin inhibitor” (Bioorg Med Chem Lett, 2000).

target: Prothrombin (Homo sapiens, UniProt P00734); assay: Anti- Thrombin activity using standard chromogenic assay

Row | Structure (SMILES) | Ki [nM]
1 | Cc1cc(OCC2CCN(C(=N)N)CC2)cc(OS(=O)(=O)c2cccc(C)c2)c1 | 36
2 | N=C(N)N1CCC(COc2cc(CO)cc(OS(=O)(=O)c3ccccc3Cl)c2)CC1 | 490
3 | Cc1cc(OCC2CCN(C(=N)N)CC2)cc(OS(=O)(=O)c2ccccc2C(F)(F)F)c1 | 14
4 | Cc1cc(OCC2CCN(C(=N)N)CC2)cc(OS(=O)(=O)c2cccc(N)c2)c1 | 32
5 | COc1cc(OCC2CCN(C(=N)N)CC2)cc(OS(=O)(=O)c2ccccc2Cl)c1 | 44
6 | N=C(N)N1CCC(COc2cccc(OS(=O)(=O)c3ccccc3Cl)c2)CC1 | 190
7 | Cc1cc(OCC2CCN(C(=N)N)CC2)cc(OS(=O)(=O)c2ccc(N)cc2)c1 | 399
8 | Cc1cc(OCC2CC[N+](=C([NH-])N)CC2)cc(OS(=O)(=O)c2cccc([N+](=O)[O-])c2)c1 (stereo not given) | 115
9 | COC(=O)c1ccccc1S(=O)(=O)Oc1cc(C)cc(OCC2CCN(C(=N)N)CC2)c1 | 28
10 | Cc1cc(OCC2CC[N+](=C([NH-])N)CC2)cc(OS(=O)(=O)c2ccc([N+](=O)[O-])cc2)c1 (stereo not given) | 327
11 | COC(=O)c1cc(OCC2CCN(C(=N)N)CC2)cc(OS(=O)(=O)c2ccccc2Cl)c1 | 3700
12 | Cc1cc(OCC2CCN(C(=N)N)CC2)cc(OS(=O)(=O)c2cccc(C(F)(F)F)c2)c1 | 445
13 | Cc1cc(OCC2CCN(C(=N)N)CC2)cc(OS(=O)(=O)c2cccc(Cl)c2Cl)c1 | 22
14 | N=C(N)N1CCC(COc2cc(Cl)cc(OS(=O)(=O)c3ccccc3Cl)c2)CC1 | 30
15 | Cc1cc(OCC2CC[N+](=C([NH-])N)CC2)cc(OS(=O)(=O)c2ccccc2[N+](=O)[O-])c1 (stereo not given) | 16
16 | CCc1cc(OCC2CCN(C(=N)N)CC2)cc(OS(=O)(=O)c2ccccc2Cl)c1 | 39
17 | Cc1cc(OCC2CCN(C(=N)N)CC2)cc(OS(=O)(=O)c2cccc(Cl)c2)c1 | 39
18 | Cc1cc(OCC2CCN(C(=N)N)CC2)cc(OS(=O)(=O)c2ccccc2N)c1 | 52
19 | Cc1cc(OCC2CCN(C(=N)N)CC2)cc(OS(=O)(=O)c2cccc3ccccc23)c1 | 35
20 | Cc1cc(OCC2CCN(C(=N)N)CC2)cc(OS(=O)(=O)c2ccccc2)c1 | 32
